Reference: ChEMBL document CHEMBL3856231 (J Med Chem, 2016)
The source made the active and inactive calls. The rule behind the calls is not given here.

Legend:
[1] = tested on: KARPAS-299; experiment: Induction of apoptosis assessed as caspase 3/7 activation in human KARPAS299 expressing NPM-ALK; type: functional
[2] = Oral bioavailability in cynomolgus monkey at 10 mg/kg by LC/MS/MS analysis; type: ADME, organism-based, Macaca fascicularis; details: in vivo
[3] = Cmax in Sprague-Dawley rat at 5 mg/kg, po by LC/MS/MS analysis; type: ADME, organism-based; design: dose 5 mg/kg, route oral; details: in vivo
[4] = tested on: SUP-M2; experiment: Antitumor activity against human SUP-M2 cells expressing NPM-ALK xenografted in po dosed SCID-Beige mouse assessed as reduction in tumor volume administered twice daily for 12 days measured during compound dosing; type: functional, organism-based
[5] = Volume of distribution in cynomolgus monkey at 1 mg/kg, iv by LC/MS/MS analysis; type: ADME, organism-based, Macaca fascicularis; details: in vivo
[6] = Dose normalized AUC in Sprague-Dawley rat at 5 mg/kg, po by LC/MS/MS analysis; type: ADME, organism-based; details: in vivo
[7] = Cmax in CD-1 mouse at 10 mg/kg, po by LC/MS/MS analysis; type: ADME, organism-based; design: dose 10 mg/kg, route oral; details: in vivo
[8] = AUC (0 to infinity) in Sprague-Dawley rat at 5 mg/kg, po by LC/MS/MS analysis; type: ADME, organism-based; design: dose 5 mg/kg, time infinity, route oral; details: in vivo
[9] = Clearance in cynomolgus monkey at 1 mg/kg, iv by LC/MS/MS analysis; type: ADME, organism-based, Macaca fascicularis; details: in vivo
[10] = Drug level in tumor of FAK expressing human CWR22 cells xenografted Nu/Nu mouse at 55 mg/kg, po administered as single dose measured at 2 hrs by LC-MS/MS analysis; type: ADME, organism-based, Neoplasm; details: read-out: Drug uptake
[11] = Volume of distribution in CD-1 mouse at 1 mg/kg, iv by LC/MS/MS analysis; type: ADME, organism-based; details: in vivo
[12] = Drug level in plasma of FAK expressing human CWR22 cells xenografted Nu/Nu mouse at 55 mg/kg, po administered as single dose measured at 12 hrs by LC-MS/MS analysis; type: ADME, organism-based
[13] = Half life in human liver microsomes by LC/MS/MS analysis; type: ADME
[14] = AUC (0 to infinity) in cynomolgus monkey at 1 mg/kg, iv by LC/MS/MS analysis; type: ADME, organism-based, Macaca fascicularis; design: dose 1 mg/kg, route intravenous, time infinity; details: in vivo
[15] = AUC (0 to infinity) in CD-1 mouse at 1 mg/kg, iv by LC/MS/MS analysis; type: ADME, organism-based; design: dose 1 mg/kg, time infinity, route intravenous; details: in vivo
[16] = AUC (0 to infinity) in cynomolgus monkey at 10 mg/kg, po by LC/MS/MS analysis; type: ADME, organism-based, Macaca fascicularis; design: dose 10 mg/kg, route oral, time infinity; details: in vivo
[17] = molecular target: Voltage-gated inwardly rectifying potassium channel KCNH2 (Homo sapiens, UniProt Q12809); experiment: Inhibition of human ERG
Sequence of Voltage-gated inwardly rectifying potassium channel KCNH2 (Q12809 whole entry): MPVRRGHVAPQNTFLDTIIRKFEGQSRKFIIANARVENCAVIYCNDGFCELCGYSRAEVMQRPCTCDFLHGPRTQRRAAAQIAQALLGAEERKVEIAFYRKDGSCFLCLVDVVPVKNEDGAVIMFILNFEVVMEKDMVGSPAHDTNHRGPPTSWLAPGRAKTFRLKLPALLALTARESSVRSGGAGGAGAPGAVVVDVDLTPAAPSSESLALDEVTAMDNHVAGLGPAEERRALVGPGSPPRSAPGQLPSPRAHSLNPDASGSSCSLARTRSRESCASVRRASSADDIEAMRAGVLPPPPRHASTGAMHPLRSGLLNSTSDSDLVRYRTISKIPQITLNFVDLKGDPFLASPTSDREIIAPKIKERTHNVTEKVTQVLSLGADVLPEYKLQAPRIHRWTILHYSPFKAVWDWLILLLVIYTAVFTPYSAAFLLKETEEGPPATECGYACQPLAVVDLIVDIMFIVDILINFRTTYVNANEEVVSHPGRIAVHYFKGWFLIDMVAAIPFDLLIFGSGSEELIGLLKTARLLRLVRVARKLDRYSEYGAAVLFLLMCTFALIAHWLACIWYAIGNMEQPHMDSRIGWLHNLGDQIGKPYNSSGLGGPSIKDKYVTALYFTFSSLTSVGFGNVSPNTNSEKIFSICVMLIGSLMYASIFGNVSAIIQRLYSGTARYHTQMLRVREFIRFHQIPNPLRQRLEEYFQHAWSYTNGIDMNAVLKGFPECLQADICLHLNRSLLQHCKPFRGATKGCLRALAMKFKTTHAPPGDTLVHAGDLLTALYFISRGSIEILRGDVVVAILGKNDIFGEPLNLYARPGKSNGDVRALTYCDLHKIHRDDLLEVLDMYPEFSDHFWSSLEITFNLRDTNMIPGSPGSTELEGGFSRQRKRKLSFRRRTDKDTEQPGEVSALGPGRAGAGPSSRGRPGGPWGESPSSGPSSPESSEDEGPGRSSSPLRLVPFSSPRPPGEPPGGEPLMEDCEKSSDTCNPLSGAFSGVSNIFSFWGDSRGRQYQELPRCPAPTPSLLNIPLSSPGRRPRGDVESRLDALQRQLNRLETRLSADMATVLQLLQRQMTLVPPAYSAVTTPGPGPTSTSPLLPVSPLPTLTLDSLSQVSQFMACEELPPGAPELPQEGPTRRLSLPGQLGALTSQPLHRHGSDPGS

[18] = Drug level in tumor of NPM-ALK expressing human SUP-M2 cells xenografted mouse at 30 mg/kg, po administered as single dose measured at 6 hrs by LC-MS/MS analysis; type: ADME, organism-based, Neoplasm; details: read-out: Drug uptake
[19] = tested on: NCI-H2228; experiment: Antitumor activity against human NCI-H2228 cells expressing EML4-ALK xenografted in SCID-Beige mouse assessed as reduction in tumor volume at 55 mg/kg, po bid administered for 11 days measured during compound dosing; type: functional, organism-based
[20] = AUC (0 to 48 hrs) in Sprague-Dawley rat brain at 30 mg/kg, po by LC/MS/MS analysis; type: ADME, organism-based; design: dose 30 mg/kg, time < 48 hr, route oral
[21] = Clearance in CD-1 mouse at 1 mg/kg, iv by LC/MS/MS analysis; type: ADME, organism-based; details: in vivo
[22] = molecular target: Cytochrome P450 2C9 (Homo sapiens, UniProt P11712); experiment: Inhibition of CYP2C9 in human liver microsomes using diclofenac as substrate in presence of NADPH by LC/MS/MS analysis; type: ADME
Sequence of Cytochrome P450 2C9 (P11712 whole entry): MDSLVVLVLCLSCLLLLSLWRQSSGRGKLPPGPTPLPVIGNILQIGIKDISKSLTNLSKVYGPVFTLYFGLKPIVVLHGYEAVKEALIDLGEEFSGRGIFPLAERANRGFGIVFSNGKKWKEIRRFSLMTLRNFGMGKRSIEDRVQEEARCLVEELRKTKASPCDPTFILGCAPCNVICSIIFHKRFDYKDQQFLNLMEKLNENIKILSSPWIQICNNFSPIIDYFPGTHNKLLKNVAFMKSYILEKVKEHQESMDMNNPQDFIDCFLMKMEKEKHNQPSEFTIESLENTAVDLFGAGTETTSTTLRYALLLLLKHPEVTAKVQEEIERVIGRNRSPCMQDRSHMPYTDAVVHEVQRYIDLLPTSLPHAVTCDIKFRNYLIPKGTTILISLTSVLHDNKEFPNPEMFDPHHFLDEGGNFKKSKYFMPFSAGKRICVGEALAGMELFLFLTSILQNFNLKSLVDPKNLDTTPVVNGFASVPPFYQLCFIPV

[23] = Half life in cynomolgus monkey at 1 mg/kg, iv by LC/MS/MS analysis; type: ADME, organism-based, Macaca fascicularis; details: in vivo
[24] = Antitumor activity against human CTG-0142 cells expressing activated FAK xenografted in mouse assessed as tumor growth inhibition at 55 mg/kg, po bid administered for 28 days measured during compound dosing; type: functional; details: CTG-0142, po, 672 h, read-out: TGI
[25] = Ratio of total drug level in Sprague-Dawley rat brain to plasma at 30 mg/kg, po; type: ADME, organism-based; details: brain and plasma, read-out: BPR
[26] = Drug level in plasma of NPM-ALK expressing human SUP-M2 cells xenografted mouse at 30 mg/kg, po administered as single dose measured at 6 hrs by LC-MS/MS analysis; type: ADME, organism-based
[27] = Binding affinity to partial length human ALK 1151Tins mutant expressed in mammalian system by KINOMEscan assay
[28] = Cmax in Sprague-Dawley rat brain at 30 mg/kg, po by LC/MS/MS analysis; type: ADME, organism-based; design: dose 30 mg/kg, route oral
[29] = tested on: SUP-M2; experiment: Induction of apoptosis assessed as caspase 3/7 activation in human SUP-M2 cells expressing NPM-ALK; type: functional, cell-based
[30] = Half life in Sprague-Dawley rat at 1 mg/kg, iv by LC/MS/MS analysis; type: ADME, organism-based; details: in vivo
[31] = Antitumor activity against human CTG-0785 cells expressing activated FAK xenografted in mouse assessed as tumor growth inhibition at 55 mg/kg, po bid administered for 13 days measured during compound dosing; type: functional; details: CTG-0785, po, 312 h, read-out: TGI
[32] = Apparent permeability from apical to basolateral side in human Caco2 cells; type: ADME, cell-based; details: Caco-2
[33] = tested on: SUP-M2; experiment: Antitumor activity against human SUP-M2 cells expressing NPM-ALK xenografted in SCID-Beige mouse assessed as tumor regression at 30 mg/kg, po qd administered for 12 days measured during compound dosing; type: functional, organism-based
[34] = tested on: NCI-H2228; experiment: (§1) Cytotoxicity against human NCI-H2228 cells expressing EML4-ALK assessed as cell growth inhibition; type: functional, cell-based
[35] = as §1; type: functional, cell-based
[36] = tested on: HCC827; experiment: Antitumor activity against human HCC827 cells expressing activated FAK xenografted in SCID-Beige mouse assessed as tumor growth inhibition at 30 mg/kg, po bid administered for 28 days; type: functional, organism-based
[37] = tested on: NCI-H3122; experiment: (§2) Cytotoxicity against human NCI-H3122 cells expressing EML4-ALK assessed as cell growth inhibition; type: functional, cell-based
[38] = as §2; type: functional, cell-based
[39] = Oral bioavailability in CD-1 mouse at 10 mg/kg by LC/MS/MS analysis; type: ADME, organism-based; details: in vivo
[40] = tested on: CTG-0142; experiment: Antitumor activity against human CTG-0142 cells expressing activated FAK xenografted in mouse assessed as tumor stasis at 55 mg/kg, po bid administered for 28 days measured during compound dosing; type: functional, organism-based
[41] = tested on: Mus musculus; experiment: Inhibition of FAK phosphorylation in human CWR22 cells xenografted in Nu/Nu mouse at 55 mg/kg, po administered as single dose by immunoblot analysis; type: functional, organism-based; details: TDE = time-dependent effect
[42] = tested on: IBC; experiment: Antitumor activity against human IBC cells xenografted in SCID mouse; type: functional
[43] = tested on: Mus musculus; experiment: Inhibition of NPM-ALK phosphorylation in human SUP-M2 cells xenografted in mouse at 30 mg/kg, po administered as single dose measured upto 12 hrs; type: functional, organism-based
[44] = Dose normalized AUC in cynomolgus monkey at 10 mg/kg, po by LC/MS/MS analysis; type: ADME, organism-based, Macaca fascicularis; details: in vivo
[45] = AUC (0 to infinity) in Sprague-Dawley rat at 1 mg/kg, iv by LC/MS/MS analysis; type: ADME, organism-based; design: dose 1 mg/kg, time infinity, route intravenous; details: in vivo

CNC(=O)c1ccccc1Nc1nc(Nc2ccc3c(c2OC)CCC[C@H](N2CCN(CCO)CC2)C3)ncc1Cl [CEP-37440]
Activity [1]: Active | bioavailability [2]: 50% | Cmax [3]: 1340 ng/mL | Activity [4]: Dose-dependent effect | Vd [5]: 13.2 L/kg | AUC/dose [6]: 1672 ng·h/mL | Cmax [7]: 1530 ng/mL | AUC(0-inf) [8]: 8360 ng·h/mL | clearance [9]: 30 mL/min/kg | concentration at 2 h [10]: 6070 ng/g | Vd [11]: 2.7 L/kg | concentration at 12 h [12]: 541 ng/mL | half-life [13]: 0.667 h | AUC(0-inf) [14]: 554 ng·h/mL | AUC(0-inf) [15]: 1610 ng·h/mL | AUC(0-inf) [16]: 2760 ng·h/mL | IC50 [17]: > 10 µM | concentration at 6 h [18]: 6930 ng/g | Activity [19]: Active | AUC(0-t) at 48 h [20]: 61600 ng·h/mL | clearance [21]: 10 mL/min/kg | IC50 [22]: > 5.6 µM | half-life [23]: 5.4 h | inhibition in vivo at 55 mg/kg [24]: 75% | Kp [25]: 1.5 to 2 | concentration at 6 h [26]: 3360 ng/mL | Kd [27]: 0.0026 µM | Cmax [28]: 3160 ng/g | Activity [29]: Active | half-life [30]: 2 h | inhibition in vivo at 55 mg/kg [31]: 70% | Papp A→B [32]: > 1 ×10⁻⁶ cm/s | Activity [33]: Active | growth inhibition (GI) [34]: Dose-dependent effect | IC50 [35]: 2.9 µM | TGI [36]: Active | growth inhibition (GI) [37]: Dose-dependent effect | IC50 [38]: 1.78 µM | bioavailability [39]: 102% | Activity [40]: Active | inhibition [41]: Tde | Activity [42]: Dose-dependent effect | inhibition [43]: Active | AUC/dose [44]: 276 ng·h/mL | AUC(0-inf) [45]: 4000 ng·h/mL
